Assay [1] addresses T1, Rhodopsin kinase GRK7 (Homo sapiens) (UniProt Q8WTQ7).
T1 sequence (whole entry): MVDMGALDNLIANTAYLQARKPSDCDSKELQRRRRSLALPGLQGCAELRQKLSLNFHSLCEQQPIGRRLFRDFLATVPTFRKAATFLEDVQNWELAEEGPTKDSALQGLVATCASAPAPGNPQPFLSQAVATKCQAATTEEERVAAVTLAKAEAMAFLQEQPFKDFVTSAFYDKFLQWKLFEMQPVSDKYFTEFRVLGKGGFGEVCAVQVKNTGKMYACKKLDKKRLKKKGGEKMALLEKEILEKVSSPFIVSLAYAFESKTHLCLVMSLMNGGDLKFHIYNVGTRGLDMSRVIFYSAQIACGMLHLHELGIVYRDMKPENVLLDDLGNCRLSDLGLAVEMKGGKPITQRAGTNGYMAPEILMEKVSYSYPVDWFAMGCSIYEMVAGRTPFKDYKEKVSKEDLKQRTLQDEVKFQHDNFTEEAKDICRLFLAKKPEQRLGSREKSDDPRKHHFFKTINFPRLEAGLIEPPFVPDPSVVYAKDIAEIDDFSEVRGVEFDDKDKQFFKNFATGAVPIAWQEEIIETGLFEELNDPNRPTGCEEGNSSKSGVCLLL
Kind of assay: Inhibition of human GRK7 at 1.82 nM by HotSpot assay relative to control.

In assay [2] the target is Protein kinase C gamma type (Homo sapiens) (UniProt P05129). Kind of assay: Inhibition of human PKCg at 18.6 nM by HotSpot assay relative to control.
Assay [3] has as its target T2, Serine/threonine-protein kinase VRK1 (Homo sapiens) (UniProt Q99986).
T2 sequence (whole entry): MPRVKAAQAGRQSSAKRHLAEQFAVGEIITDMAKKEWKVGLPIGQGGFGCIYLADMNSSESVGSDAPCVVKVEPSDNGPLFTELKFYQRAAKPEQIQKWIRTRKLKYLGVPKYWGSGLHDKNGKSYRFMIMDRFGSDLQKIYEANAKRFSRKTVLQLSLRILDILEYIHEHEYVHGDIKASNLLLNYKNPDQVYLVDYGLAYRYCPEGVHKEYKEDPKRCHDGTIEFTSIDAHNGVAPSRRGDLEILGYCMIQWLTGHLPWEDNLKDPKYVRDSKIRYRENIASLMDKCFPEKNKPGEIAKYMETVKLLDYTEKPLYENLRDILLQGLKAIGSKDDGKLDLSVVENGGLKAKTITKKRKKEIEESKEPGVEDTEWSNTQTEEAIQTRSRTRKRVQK
Kind of assay: Inhibition of human VRK1 at 18.6 nM by HotSpot assay relative to control.

Assay [4] addresses Mitogen-activated protein kinase kinase kinase 20 (Homo sapiens) (UniProt Q9NYL2). Briefly: Inhibition of human MLTK at 18.6 nM by HotSpot assay relative to control.
The target in assay [5] is Phosphorylase b kinase gamma catalytic chain, skeletal muscle/heart isoform (Homo sapiens) (UniProt Q16816). Briefly: Inhibition of human PHKg1 at 18.6 nM by HotSpot assay relative to control.
Sequence of Phosphorylase b kinase gamma catalytic chain, skeletal muscle/heart isoform (Homo sapiens) (Q16816 whole entry, looked up, canonical isoform): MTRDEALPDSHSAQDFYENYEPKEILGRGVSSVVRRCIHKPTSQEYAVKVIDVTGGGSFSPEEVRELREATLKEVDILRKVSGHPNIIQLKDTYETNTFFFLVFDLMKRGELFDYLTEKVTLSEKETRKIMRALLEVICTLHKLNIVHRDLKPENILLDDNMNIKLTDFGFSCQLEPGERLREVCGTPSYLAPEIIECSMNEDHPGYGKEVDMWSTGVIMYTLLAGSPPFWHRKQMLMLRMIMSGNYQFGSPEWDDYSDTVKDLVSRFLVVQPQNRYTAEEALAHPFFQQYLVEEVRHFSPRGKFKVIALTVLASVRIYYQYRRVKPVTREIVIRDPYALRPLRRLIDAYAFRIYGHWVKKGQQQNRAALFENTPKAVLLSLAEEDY
The target of assay [6] is Serine/threonine-protein kinase pim-2 (Homo sapiens) (UniProt Q9P1W9). Kind of assay: Inhibition of human PIM2 at 18.6 nM by HotSpot assay relative to control.
Sequence of Serine/threonine-protein kinase pim-2 (Homo sapiens) (Q9P1W9 whole entry, looked up): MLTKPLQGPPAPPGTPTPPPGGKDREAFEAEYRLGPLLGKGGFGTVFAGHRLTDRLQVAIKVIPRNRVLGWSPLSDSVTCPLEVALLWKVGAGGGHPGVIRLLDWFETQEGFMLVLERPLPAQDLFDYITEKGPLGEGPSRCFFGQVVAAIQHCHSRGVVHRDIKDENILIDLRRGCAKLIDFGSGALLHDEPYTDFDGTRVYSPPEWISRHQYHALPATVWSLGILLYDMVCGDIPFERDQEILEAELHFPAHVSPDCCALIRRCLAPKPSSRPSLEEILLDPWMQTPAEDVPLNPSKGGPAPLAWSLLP
The target in assay [7] is T3, Muscle, skeletal receptor tyrosine-protein kinase (Homo sapiens) (UniProt O15146).
T3 sequence (whole entry): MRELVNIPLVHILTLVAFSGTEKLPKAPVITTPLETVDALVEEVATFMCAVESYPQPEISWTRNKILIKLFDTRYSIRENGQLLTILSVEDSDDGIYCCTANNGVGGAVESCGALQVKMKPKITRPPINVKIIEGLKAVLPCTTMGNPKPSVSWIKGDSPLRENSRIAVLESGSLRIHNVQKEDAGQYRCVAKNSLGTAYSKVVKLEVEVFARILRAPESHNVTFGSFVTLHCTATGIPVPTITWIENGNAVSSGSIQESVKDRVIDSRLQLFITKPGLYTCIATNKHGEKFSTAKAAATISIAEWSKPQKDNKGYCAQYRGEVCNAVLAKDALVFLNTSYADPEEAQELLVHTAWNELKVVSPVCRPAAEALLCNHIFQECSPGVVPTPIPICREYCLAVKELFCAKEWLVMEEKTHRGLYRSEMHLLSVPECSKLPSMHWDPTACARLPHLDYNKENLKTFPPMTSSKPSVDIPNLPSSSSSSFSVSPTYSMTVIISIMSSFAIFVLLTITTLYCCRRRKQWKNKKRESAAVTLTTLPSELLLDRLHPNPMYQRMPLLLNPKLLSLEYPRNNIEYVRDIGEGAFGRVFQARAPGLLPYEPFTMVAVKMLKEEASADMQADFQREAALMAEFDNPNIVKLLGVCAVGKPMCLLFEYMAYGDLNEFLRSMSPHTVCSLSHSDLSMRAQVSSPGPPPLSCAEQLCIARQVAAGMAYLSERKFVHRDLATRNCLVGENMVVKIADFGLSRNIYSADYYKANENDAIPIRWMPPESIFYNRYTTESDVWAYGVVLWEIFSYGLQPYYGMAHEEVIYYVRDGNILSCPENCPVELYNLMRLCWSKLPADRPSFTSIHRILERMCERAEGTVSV
Kind of assay: Inhibition of human MUSK at 18.6 nM by HotSpot assay relative to control.

Assay [8] has as its target T4, Serine/threonine-protein kinase BRSK1 (Homo sapiens) (UniProt Q8TDC3).
T4 sequence (whole entry): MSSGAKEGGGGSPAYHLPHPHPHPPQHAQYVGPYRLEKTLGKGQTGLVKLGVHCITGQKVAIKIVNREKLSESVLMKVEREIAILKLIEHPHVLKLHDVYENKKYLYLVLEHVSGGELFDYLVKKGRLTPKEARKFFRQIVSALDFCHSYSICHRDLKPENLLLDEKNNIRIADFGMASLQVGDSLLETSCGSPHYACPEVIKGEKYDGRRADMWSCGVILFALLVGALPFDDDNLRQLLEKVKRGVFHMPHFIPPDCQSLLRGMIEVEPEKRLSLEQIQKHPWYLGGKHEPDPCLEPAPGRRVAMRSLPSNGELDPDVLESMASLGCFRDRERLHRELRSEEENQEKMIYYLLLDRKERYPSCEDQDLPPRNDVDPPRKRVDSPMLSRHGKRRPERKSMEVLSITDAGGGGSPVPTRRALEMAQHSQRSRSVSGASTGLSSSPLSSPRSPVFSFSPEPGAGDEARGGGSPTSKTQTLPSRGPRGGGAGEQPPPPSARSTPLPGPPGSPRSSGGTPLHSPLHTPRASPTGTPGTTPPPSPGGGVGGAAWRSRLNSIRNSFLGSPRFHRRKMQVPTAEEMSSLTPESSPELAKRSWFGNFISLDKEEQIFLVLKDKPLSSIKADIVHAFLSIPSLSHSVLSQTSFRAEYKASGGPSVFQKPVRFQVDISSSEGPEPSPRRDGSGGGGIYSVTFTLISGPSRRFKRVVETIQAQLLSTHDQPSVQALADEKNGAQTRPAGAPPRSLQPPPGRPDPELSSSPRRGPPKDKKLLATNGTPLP
Briefly: Inhibition of human BRSK1 at 18.6 nM by HotSpot assay relative to control.

This note sets out measurements from ChEMBL document CHEMBL5653615 (J Biol Chem, 2013).

Sequence of Mitogen-activated protein kinase kinase kinase 20 (Homo sapiens) (Q9NYL2 2-800 limits assumed): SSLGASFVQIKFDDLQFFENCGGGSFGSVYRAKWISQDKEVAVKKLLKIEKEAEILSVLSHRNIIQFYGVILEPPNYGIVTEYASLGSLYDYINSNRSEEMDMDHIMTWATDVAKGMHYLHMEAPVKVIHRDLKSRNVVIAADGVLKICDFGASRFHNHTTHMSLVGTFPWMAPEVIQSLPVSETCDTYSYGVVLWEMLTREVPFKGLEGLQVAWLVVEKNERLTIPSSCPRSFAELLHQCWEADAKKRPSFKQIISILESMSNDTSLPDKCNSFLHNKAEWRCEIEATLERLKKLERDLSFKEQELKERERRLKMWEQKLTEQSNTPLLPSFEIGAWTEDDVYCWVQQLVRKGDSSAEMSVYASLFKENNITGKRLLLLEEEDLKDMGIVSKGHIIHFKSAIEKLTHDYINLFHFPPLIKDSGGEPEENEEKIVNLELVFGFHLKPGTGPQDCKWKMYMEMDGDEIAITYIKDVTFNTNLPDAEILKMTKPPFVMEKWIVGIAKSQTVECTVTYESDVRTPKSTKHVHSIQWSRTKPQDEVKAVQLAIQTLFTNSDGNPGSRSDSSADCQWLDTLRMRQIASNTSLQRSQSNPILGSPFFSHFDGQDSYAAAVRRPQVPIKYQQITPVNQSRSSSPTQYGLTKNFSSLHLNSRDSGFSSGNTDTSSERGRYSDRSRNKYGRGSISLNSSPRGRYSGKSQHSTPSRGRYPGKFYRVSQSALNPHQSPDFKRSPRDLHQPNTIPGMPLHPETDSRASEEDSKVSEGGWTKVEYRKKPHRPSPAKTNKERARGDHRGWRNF

A word on the inhibition: it is the change of the read-out against control, counted positive when it falls. As for `C[C@@]1(C(=O)Nc2ccc(F)nc2)CCCN1c1nc(Nc2cc(C3CC3)n[nH]2)c2cccn2n1`, in assay [1], the inhibition is 4.43%.
In the case of `C[C@]1(O)C[C@@H](c2nc(-c3ccc4ccc(-c5ccccc5)nc4c3)c3c(N)nccn32)C1`, the inhibition in assay [2] is -8%; in assay [3], -6.1%; in assay [4], -2.34%; in assay [5], 6.05%; in assay [6], -9.03%; in assay [7] it was 1.47%. Besides, the inhibition in assay [8] was -2.86%.
